Assay results reported in patent US20110093959A1, “CRYPTOTIS PARVA SCREENING MODEL FOR ANTIEMETIC POTENTIAL” (priority 2008, published 2011).
“And” between values parts separate entries of the source, which are not always exact repeats. Equal values may be shown once.

Assays:
Type in all cases: in vivo, Cryptotis parva
Least Shrew = assay: CIS dose-response emesis, abdominal contractions and feeding, 47-hour observation; conditions: for total frequency of emesis vs vehicle control: immediate and delayed phases
Source text: During the dark night phase a red light bulb was used to illuminate the shrew cage.
To habituate the shrews to the test environment, each animal was randomly selected and transferred to a 14×17×12 cm clean opaque plastic cage and was offered ten mealworms 1 hr prior to experimentation. […] Immediately following injection, each shrew was returned to its cage and their behaviors were videotaped for the next 47 hr. Animals were allowed ad libitum access to food (mealworms) and water. Food supply was maintained by making sure that two meal worms were always available in the cage throughout the observation time. Water was available throughout the experiment via small plastic container (1 cm in diameter and 0.5 cm in height) glued to the floor of each cage. The mean frequencies (±SEM) of vomitings (wet, dry and total) and abdominal contractions per hour and the number of mealworms eaten per hour, were scored separately from videotape recordings for each individual shrew for the entire observation period by a trained observer blind to the experimental conditions.
(§1) When a significant dose and exposure interaction was found, then simple effects at a particular emesis phase was tested via a one-way ANOVA. Neurochemical data were initially analyzed by two-way analysis of variance (ANOVA) with drug dose (0 mg/kg and 10 mg/kg) and exposure time (2 hr and 33 hr) as factors. […] For each statistical test, a P value of<0.05 was necessary to achieve statistical significance.

[1] = test system: substance P tissue levels; assay: Substance P tissue levels after CIS (EIA)
Experimental: These parameters were used in our neurochemical studies. Prior to experimentation, shrews were habituated to the laboratory environment as described for the behavioral studies. […] Subgroups of each treatment were sacrificed by rapid decapitation at either 2 hr or 33 hr post-injection.
Preliminary sample preparation procedures were carried out to optimize detection conditions in accord with our published methods (Darmani et al., 2008). […] As proteases can be also deactivated by heat, at basic pH and in the presence of EDTA (Darmani et al., 2008), the entire intestine was immediately immersed in a 70° C. preheated for 5 min, 5 ml solution of normal saline containing […] EDTA at pH 8.0 in accordance to published methods (Darmani et al., 2008). Each sample was allowed to cool down naturally to room temperature and then each gut was thrice flushed and rinsed with 5 ml of the cited saline solution. Then, each gut was dissected and the duodenum and jejunum samples were placed separately in test tubes containing 1 ml assay buffer. The dissected frontal cortex and brainstem samples were placed in different test tubes containing 0.5 ml assay buffer. Each sample was homogenized using a tissue tearer (Biospec) set at level 5 for 15 sec. The homogenates were then centrifuged at 17,000×g for 15 min at 4° C. The supernatants were obtained and saved at […] until used for the EIA detection of SP. Samples were analyzed for SP using the “Correlate-EIA” kit from Assay Designs using a microplate reader.
as §1

Fos = Fos expression in the dorsal vagal complex resulting from CIS-induced vomiting; conditions: CIS 10 mg/kg i.p.; vs vehicle in place of CIS
Experimental: After the appropriate time period for acute or delayed phase vomiting, shrews were anesthetized with a lethal dose of pentobarbital (100 mg/kg) and perfused transcardially via blunted needle with a peristaltic pump. The shrew was perfused with ice cold 4% paraformaldehyde and 5% picric acid in pH 7.4, 0.1 M phosphate buffer (10 min). Brains were removed and stored in 30% sucrose in 0.1 M PB overnight, then embedded in blocks of 12% gelatin in 30% sucrose/PB. The blocks were postfixed for 3 hr in 2% paraformaldehyde/PB, then rinsed and immersed in 30% sucrose/PB until they sank (usually 1-2 hr). The brain block was cut sagittally on a freezing benchtop microtome (Leica) at 30 μm into 5 series, and stored in PB with 0.03% sodium azide.
Immunolabeling was accomplished by blocking a free-floating series with 10% normal horse serum (NHS) and 3% hydrogen peroxide in PB with 0.3% Tri-ton X-100 (TX) for 30 min. After rinsing in PB, tissue was put in sheep anti-Fos polyclonal antibody (Chemicon/Millipore, Temecula, Calif.; 1:600), with 5% NHS and 0.3% TX in PB, and incubated for about 42 hr at room temperature (RT) with gentle shaking. After rinsing in PB, the tissue was placed in biotinylated donkey anti-sheep IgG secondary antibody (Jackson Immunoresearch, West Grove, Pa.; 1:600) diluted in the same diluent described for the primary antibody, and the tissue incubated at RT with shaking for 75 min Tissue was then rinsed and incubated for 60 min in HRP-conjugated avidin-biotin complex (Vector Labs, Burlingame, Calif.; Vectastain kit diluted 1:2) in PB. Tissue was then rinsed twice in PB, then once in imidazole-acetate buffer (0.1 M, pH 7.4), then reacted for 6 min in 0.0006% hydrogen peroxide with 2% nickel ammonium sulfate-enhanced diaminobenzidine (DAB, 0.05% in 0.1 M imidazole-acetate buffer). All reagents for DAB processing were purchased from Sigma-Aldrich. […]

[2] = CIS 10 mg/kg, i.p., post exposure
[3] = CIS 10 mg/kg, 2 hour (immediate phase)
[4] = CIS 10 mg/kg, 33 hour (delayed phase)

Which results are given for N.N.[Cl][Pt][Cl] [CIS, cis-platinum(II)diamine dichloride]?
peak immediate phase of emesis (Least Shrew; CIS 5 mg/kg, i.p.): third hour; mealworms eaten vs control (Least Shrew; CIS 5 mg/kg, first night): ate significantly more; time of maximal mean frequency of emesis, delayed phase (Least Shrew; [2]): 33 h; time of maximal mean frequency of emesis, immediate phase (Least Shrew; [2]): 2 h and 2 to 3 h; mealworms eaten vs control (Least Shrew; CIS 10 mg/kg, day 1): ate significantly more; mealworms eaten vs control (Least Shrew; CIS 10 mg/kg, day 2): ate significantly less; frequency of abdominal contractions vs vehicle (Least Shrew; CIS 10 mg/kg, delayed phase): greater frequencies; frequency of dry emesis vs vehicle control (Least Shrew; CIS 10 mg/kg, delayed phase): greater frequencies; total frequency of emesis vs vehicle control (Least Shrew; CIS 10 mg/kg): significantly different; frequency of wet emesis vs control (Least Shrew; CIS 10 mg/kg, immediate phase): significantly greater frequencies; time from which animals expired (Least Shrew; CIS 20 mg/kg, i.p., post-CIS exposure): ≥ 30 h; mealworms eaten vs control (Least Shrew; CIS 20 mg/kg, day 1): ate less; mealworms eaten vs control (Least Shrew; CIS 20 mg/kg, day 2): ate significantly less; frequency of abdominal contractions vs vehicle (Least Shrew; CIS 20 mg/kg, delayed phase): greater frequencies; mealworms eaten vs control (Least Shrew; CIS 20 mg/kg, first night): ate significantly less; total frequency of emesis vs vehicle control (Least Shrew; CIS 20 mg/kg): significantly different; frequency of dry vomiting vs vehicle control (Least Shrew; CIS 20 mg/kg, immediate phase): significantly greater frequencies; frequency of wet emesis vs control (Least Shrew; CIS 20 mg/kg, immediate phase): significantly greater frequencies; mean frequency of abdominal contractions vs vehicle (Least Shrew; CIS 20 mg/kg, immediate phase): significantly greater; wet vomiting, dose effect (Least Shrew; CIS 5-20 mg/kg, delayed phase): no significant dose effect; duodenal SP tissue levels ([1]; CIS 10 mg/kg, 2 and 33 hour): failed to exhibit a significant effect; frontal cortex SP tissue levels vs vehicle ([1]; CIS 10 mg/kg, 2 hour): no significant difference; increase in brainstem SP levels vs vehicle [1, 3]: 1396%; increase in jejunal SP levels vs vehicle [1, 3]: 333%; decrease in frontal cortex SP levels vs vehicle ([1]; CIS 10 mg/kg, 33 hour): 39.2%; increase in brainstem SP levels vs vehicle [1, 4]: 956%; increase in jejunal SP levels vs vehicle [1, 4]: 226.5%; brainstem mean SP level lower at 33 hour than at 2 hour ([1]; CIS groups): 100%; Fos-IR in the DVC after CIS-induced vomiting (Fos): numerous Fos-IR nuclei
